Measured values reported in PubChem BioAssay (NCI).
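Grown in 96-well plates, cells were treated for 48 hours with each compound at five concentrations. Insufficient inhibition: endpoint recorded as highest concentration tested. TGI: total growth inhibition.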

Legend:
Test in all cases: NCI anticancer screen, dose series, 48 h
KM20L2 colon = test system: KM20L2 colon
ACHN renal = test system: ACHN renal
786-0 renal = test system: 786-0 renal
NCI-H226 lung = test system: NCI-H226 lung
LXFL 529 NSCLC = test system: LXFL 529 NSCLC
A498 renal = test system: A498 renal
OVCAR-8 ovarian = test system: OVCAR-8 ovarian
NCI-H23 lung = test system: NCI-H23 lung
HCT-15 colon = test system: HCT-15 colon
M19-MEL melanoma = test system: M19-MEL melanoma
IGROV1 ovarian = test system: IGROV1 ovarian
CAKI-1 renal = test system: CAKI-1 renal
HL-60(TB) leukemia = test system: HL-60(TB) leukemia
KM12 colon = test system: KM12 colon
DMS 273 small cell lung = test system: DMS 273 small cell lung
RPMI-8226 leukemia = test system: RPMI-8226 leukemia
OVCAR-3 ovarian = test system: OVCAR-3 ovarian
OVCAR-4 ovarian = test system: OVCAR-4 ovarian
DLD-1 colon = test system: DLD-1 colon
EKVX NSCLC = test system: EKVX NSCLC
SNB-78 CNS = test system: SNB-78 CNS
UACC-257 melanoma = test system: UACC-257 melanoma
DMS 114 small cell lung = test system: DMS 114 small cell lung
SK-OV-3 ovarian = test system: SK-OV-3 ovarian
UO-31 renal = test system: UO-31 renal
U251 CNS = test system: U251 CNS
A549 NSCLC = test system: A549 NSCLC
SF-295 CNS = test system: SF-295 CNS
TK-10 renal = test system: TK-10 renal
CCRF-CEM leukemia = test system: CCRF-CEM leukemia
UACC-62 melanoma = test system: UACC-62 melanoma
SF-539 CNS = test system: SF-539 CNS
SK-MEL-5 melanoma = test system: SK-MEL-5 melanoma
SNB-75 CNS = test system: SNB-75 CNS
MALME-3M melanoma = test system: MALME-3M melanoma
OVCAR-5 ovarian = test system: OVCAR-5 ovarian
SW-620 colon = test system: SW-620 colon
MOLT-4 leukemia = test system: MOLT-4 leukemia
SK-MEL-28 melanoma = test system: SK-MEL-28 melanoma
HCT-116 colon = test system: HCT-116 colon
HCC-2998 colon = test system: HCC-2998 colon
HOP-62 NSCLC = test system: HOP-62 NSCLC
SK-MEL-2 melanoma = test system: SK-MEL-2 melanoma
HT29 colon = test system: HT29 colon
RXF 393 renal = test system: RXF 393 renal
K-562 leukemia = test system: K-562 leukemia
XF 498 CNS = test system: XF 498 CNS
NCI-H460 lung = test system: NCI-H460 lung
BT-549 breast = test system: BT-549 breast
MDA-MB-231 breast = test system: MDA-MB-231 breast
MDA-N = test system: MDA-N
NCI-H522 lung = test system: NCI-H522 lung
PC-3 prostate = test system: PC-3 prostate
HS 578T breast = test system: HS 578T breast
DU-145 prostate = test system: DU-145 prostate
COLO 205 colon = test system: COLO 205 colon
SNB-19 CNS = test system: SNB-19 CNS
SR leukemia = test system: SR leukemia
MDA-MB-435 = test system: MDA-MB-435
T-47D breast = test system: T-47D breast
SN12C renal = test system: SN12C renal
LOX IMVI melanoma = test system: LOX IMVI melanoma
NCI/ADR-RES ovarian = test system: NCI/ADR-RES ovarian
MCF7 breast = test system: MCF7 breast
SF-268 CNS = test system: SF-268 CNS
HOP-92 NSCLC = test system: HOP-92 NSCLC
M14 melanoma = test system: M14 melanoma

`Cc1ccc(S(=O)(=O)Nc2ccccc2C(C)(C)C)cc1` was tested, and the TGI (KM20L2 colon) was 36.7 µM, the TGI (ACHN renal) was > 100 µM and the TGI (786-0 renal) was 62.5 µM. The TGI (NCI-H226 lung) was 56.3 µM, the TGI (LXFL 529 NSCLC) was 78.1 µM and the TGI (A498 renal) was 59.7 µM. The TGI (OVCAR-8 ovarian) was > 100 µM, the TGI (NCI-H23 lung) was 46.3 µM and the TGI (HCT-15 colon) was 54.6 µM. The TGI (M19-MEL melanoma) was 82.3 µM, the TGI (IGROV1 ovarian) was > 100 µM and the TGI (CAKI-1 renal) was 59.3 µM. It also gave a TGI (HL-60(TB) leukemia) of 44.7 µM, a TGI (KM12 colon) of 47.1 µM and a TGI (DMS 273 small cell lung) of 38.5 µM. The TGI (RPMI-8226 leukemia) was 54.3 µM, the TGI (OVCAR-3 ovarian) was 40 µM and the TGI (OVCAR-4 ovarian) was > 100 µM. For the same compound, the TGI (DLD-1 colon) was > 100 µM, the TGI (EKVX NSCLC) was > 100 µM and the TGI (SNB-78 CNS) was > 100 µM. For the same compound, the TGI (UACC-257 melanoma) was 35.4 µM, the TGI (DMS 114 small cell lung) was 60.4 µM and the TGI (SK-OV-3 ovarian) was 81.3 µM. The TGI (UO-31 renal) was 47.3 µM, the TGI (U251 CNS) was 43.3 µM and the TGI (A549 NSCLC) was > 100 µM. The TGI (SF-295 CNS) was 32 µM, the TGI (TK-10 renal) was > 100 µM and the TGI (CCRF-CEM leukemia) was 63.8 µM. It also gave a TGI (UACC-62 melanoma) of 44.4 µM, a TGI (SF-539 CNS) of 33.9 µM and a TGI (SK-MEL-5 melanoma) of 29.8 µM. For the same compound, the TGI (SNB-75 CNS) was > 100 µM, the TGI (MALME-3M melanoma) was 89.1 µM and the TGI (OVCAR-5 ovarian) was > 100 µM. The TGI (SW-620 colon) was > 100 µM, the TGI (MOLT-4 leukemia) was 62.8 µM and the TGI (SK-MEL-28 melanoma) was 43.2 µM. For the same compound, the TGI (HCT-116 colon) was 29.1 µM, the TGI (HCC-2998 colon) was > 100 µM and the TGI (HOP-62 NSCLC) was 45.9 µM. The TGI (SK-MEL-2 melanoma) was 60.2 µM, the TGI (HT29 colon) was 31.9 µM and the TGI (RXF 393 renal) was 26.8 µM. The TGI (K-562 leukemia) was 50.1 µM, the TGI (XF 498 CNS) was 44.8 µM and the TGI (NCI-H460 lung) was 42.2 µM.

In the case of `Cc1cc(NC(=O)NC(=O)c2ccccc2NC(=O)CN(C)C)ccc1Oc1ncc(Br)cn1`, the TGI (KM20L2 colon) is reported as 34.7 µM, the TGI (ACHN renal) is reported as > 100 µM and the TGI (786-0 renal) is reported as > 89.3 µM. For the same compound, the TGI (NCI-H226 lung) was > 92.7 µM, the TGI (BT-549 breast) was > 100 µM and the TGI (LXFL 529 NSCLC) was > 100 µM. For the same compound, the TGI (MDA-MB-231 breast) was > 78.1 µM, the TGI (A498 renal) was 17 µM and the TGI (OVCAR-8 ovarian) was > 100 µM. For the same compound, the TGI (NCI-H23 lung) was 65.9 µM, the TGI (HCT-15 colon) was > 100 µM and the TGI (MDA-N) was 0.505 µM. For the same compound, the TGI (NCI-H522 lung) was 10.3 µM, the TGI (PC-3 prostate) was > 100 µM and the TGI (M19-MEL melanoma) was > 100 µM. The TGI (IGROV1 ovarian) was > 100 µM, the TGI (CAKI-1 renal) was 64.3 µM and the TGI (HS 578T breast) was > 23.9 µM. The TGI (DU-145 prostate) was > 100 µM, the TGI (HL-60(TB) leukemia) was 12.5 µM and the TGI (COLO 205 colon) was 39.7 µM. For the same compound, the TGI (KM12 colon) was > 100 µM, the TGI (DMS 273 small cell lung) was > 100 µM and the TGI (RPMI-8226 leukemia) was > 100 µM. For the same compound, the TGI (OVCAR-3 ovarian) was 13.1 µM, the TGI (OVCAR-4 ovarian) was > 100 µM and the TGI (DLD-1 colon) was > 100 µM. For the same compound, the TGI (EKVX NSCLC) was > 100 µM, the TGI (SNB-78 CNS) was > 100 µM and the TGI (UACC-257 melanoma) was > 100 µM. For the same compound, the TGI (SNB-19 CNS) was > 100 µM, the TGI (DMS 114 small cell lung) was 35.7 µM and the TGI (SK-OV-3 ovarian) was > 91.5 µM. For the same compound, the TGI (UO-31 renal) was > 100 µM, the TGI (SR leukemia) was > 79.5 µM and the TGI (MDA-MB-435) was 3.09 µM. The TGI (T-47D breast) was > 100 µM, the TGI (U251 CNS) was > 86.6 µM and the TGI (A549 NSCLC) was > 100 µM. The TGI (SF-295 CNS) was 16.2 µM, the TGI (TK-10 renal) was > 100 µM and the TGI (CCRF-CEM leukemia) was > 63.8 µM. The TGI (UACC-62 melanoma) was > 82.9 µM, the TGI (SN12C renal) was > 100 µM and the TGI (LOX IMVI melanoma) was > 100 µM. The TGI (SF-539 CNS) was 10.6 µM, the TGI (SK-MEL-5 melanoma) was > 100 µM and the TGI (SNB-75 CNS) was 37.2 µM. The TGI (NCI/ADR-RES ovarian) was > 27.8 µM, the TGI (MALME-3M melanoma) was > 100 µM and the TGI (OVCAR-5 ovarian) was > 100 µM. The TGI (MCF7 breast) was > 100 µM, the TGI (SW-620 colon) was > 100 µM and the TGI (MOLT-4 leukemia) was 59.8 µM. The TGI (SF-268 CNS) was > 100 µM, the TGI (SK-MEL-28 melanoma) was > 56.2 µM and the TGI (HCT-116 colon) was > 79.4 µM. For the same compound, the TGI (HCC-2998 colon) was 6.05 µM, the TGI (HOP-62 NSCLC) was > 76.4 µM and the TGI (SK-MEL-2 melanoma) was > 85.1 µM. The TGI (HT29 colon) was 31.1 µM, the TGI (RXF 393 renal) was 22.8 µM and the TGI (K-562 leukemia) was > 57.8 µM. The TGI (XF 498 CNS) was > 100 µM, the TGI (HOP-92 NSCLC) was > 100 µM and the TGI (M14 melanoma) was > 57.4 µM. For the same compound, the TGI (NCI-H460 lung) was > 95 µM.
